Measured values: PubChem BioAssay (NCI)
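Cultured in 96-well plates, cells were exposed to test compound for 48 hours across five concentrations. Abbreviation: GI50, concentration required for 50% inhibition of growth. TGI: concentration producing complete growth inhibition.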

Key:
Experiment in all cases: NCI anticancer screen, dose series, 48 h
NCI-H522 lung = test system: NCI-H522 lung
HCT-15 colon = test system: HCT-15 colon
SN12C renal = test system: SN12C renal
U251 CNS = test system: U251 CNS
MALME-3M melanoma = test system: MALME-3M melanoma
SK-OV-3 ovarian = test system: SK-OV-3 ovarian
HOP-62 NSCLC = test system: HOP-62 NSCLC
SK-MEL-28 melanoma = test system: SK-MEL-28 melanoma
HL-60(TB) leukemia = test system: HL-60(TB) leukemia
K-562 leukemia = test system: K-562 leukemia
MDA-MB-435 = test system: MDA-MB-435
MOLT-4 leukemia = test system: MOLT-4 leukemia

Structure (SMILES) | TGI (NCI-H522 lung) [µM] | TGI (HCT-15 colon) [µM] | TGI (SN12C renal) [µM] | TGI (U251 CNS) [µM] | TGI (MALME-3M melanoma) [µM] | TGI (SK-OV-3 ovarian) [µM] | TGI (HOP-62 NSCLC) [µM] | TGI (SK-MEL-28 melanoma) [µM] | TGI (HL-60(TB) leukemia) [µM] | TGI (K-562 leukemia) [µM] | TGI (MDA-MB-435) [µM] | TGI (MOLT-4 leukemia) [µM] | GI50 (MALME-3M melanoma) [µM] | GI50 (SK-OV-3 ovarian) [µM] | GI50 (HOP-62 NSCLC) [µM] | GI50 (MOLT-4 leukemia) [µM] | GI50 (K-562 leukemia) [µM]
CCOC(=O)CC1=N/C(=N/C(=N)N[N+](=O)[O-])SC1 | > 100 | > 100 | > 100 | > 100 | > 100 | > 100 | > 100 | > 100 | > 100 | > 100 | – | – | – | – | – | – | –
O=C1CSC(c2c[nH]c3ccccc23)N1c1cccc(Cl)c1 (centres undefined) | – | > 100 | > 100 | > 100 | – | > 100 | > 100 | > 100 | > 100 | > 100 | > 100 | > 100 | – | – | – | – | –
C=C1CC[C@](C)(O)[C@@]2(C)CC[C@H]3C(=C(C)C)C(=O)C[C@]3(C)C[C@H]12 | > 50 | 46.2 | > 50 | > 50 | – | > 50 | > 50 | > 50 | 18.9 | 16.8 | > 50 | 31.6 | – | – | – | – | –
Nc1ccccc1N | 47.5 | > 100 | > 100 | > 100 | > 100 | > 100 | > 100 | > 100 | 70.3 | > 100 | – | > 100 | – | – | – | – | –
CCCN(CCC)C(=S)Sc1nc(C)nc(N2CCN(c3nc(C)nc(SC(=S)N(CCC)CCC)c3[N+](=O)[O-])CC2)c1[N+](=O)[O-] | 3.17 | 32.1 | > 39.8 | 16.7 | 45.6 | > 100 | > 85 | 36.9 | > 38.3 | – | > 65.9 | 28 | – | – | – | – | –
Cc1cccc2cc(/C=C/C(=O)/C=C/c3ccc(Cl)cc3)c(=O)[nH]c12 | – | – | – | – | > 100 | > 100 | > 100 | – | – | > 100 | – | > 100 | > 100 | > 100 | > 100 | 5.69 | 3.8
C=CCN1C(=O)CC2[C@@H]3CCc4cc(O)ccc4C3CC[C@]2(C)C1=O (some centres undefined) | – | > 10 | > 10 | > 10 | > 10 | > 10 | > 10 | > 10 | > 10 | > 10 | > 10 | > 10 | – | – | – | – | –
Clc1ccc(/C=C/c2nc(-c3ccccc3)cn3c2nc2ccccc23)cc1Cl | – | > 100 | > 100 | > 100 | – | > 100 | > 100 | > 100 | 49.7 | > 100 | > 100 | > 100 | – | – | – | – | –
COc1cc2c(cc1OS(C)(=O)=O)N=C[C@@H]1CCCN1C2=O | > 100 | > 100 | > 100 | > 100 | > 100 | > 100 | – | > 100 | > 100 | – | > 100 | > 100 | – | – | – | – | –
COC(=O)C(Cc1ccccc1)NC(=O)CSc1nnc(COc2ccc(Cl)cc2)n1-c1ccccc1 (centres undefined) | – | > 100 | 48.9 | 32.9 | 42.7 | 63 | 45 | 78.6 | 46.6 | > 100 | 45.6 | > 100 | – | – | – | – | –
C/C=C1/CC(C(=O)OC)N(C(=O)OCc2ccccc2)C1=S (centres undefined) | > 100 | > 100 | – | > 100 | > 100 | > 100 | > 100 | > 100 | – | > 100 | > 100 | > 100 | – | – | – | – | –
CC(=O)OCC1OC(n2c3c(c(-c4ccc(C)cc4)c(C#N)c2=S)C(=O)CC(C)(C)C3)C(OC(C)=O)C(OC(C)=O)C1OC(C)=O (centres undefined) | > 100 | – | 42.7 | > 100 | > 100 | – | > 100 | 66.3 | > 100 | 95.3 | > 100 | > 100 | – | – | – | – | –
COC(=NC(C)C)NC(C)C | – | > 100 | > 100 | > 100 | – | > 100 | > 100 | > 100 | > 100 | > 100 | > 100 | > 100 | – | – | – | – | –
N#Cc1cc2c(cc1C#N)SCCSCCCSCCS2 | > 85.7 | 34.9 | > 100 | 28.2 | > 65.1 | 45.4 | 4.95 | > 100 | – | > 100 | > 100 | > 100 | – | – | – | – | –
CCCCCCCCCCCCCCCCOCC(COP(=O)(O)OCC1OC(n2cc(CC)c(=O)[nH]c2=O)CC1O)OC(=O)CCCCCCCCCCCCCCC (centres undefined) | > 100 | > 100 | > 100 | > 100 | – | > 100 | > 100 | > 100 | > 100 | > 100 | > 100 | > 100 | – | – | – | – | –
O=C1C=CC2(C=C1)O[C@H](COCc1ccccc1)[C@@H](COCc1ccccc1)O2 | – | 2.99 | 3.6 | 4.02 | 6.48 | 29 | 5.12 | 3.57 | 6.4 | > 100 | 5.51 | 15.1 | – | – | – | – | –
COc1ccc2c(-c3csc(-c4c[nH]c5ccc(Br)cc45)n3)c[nH]c2c1 | 92.6 | > 100 | > 100 | > 100 | 43.9 | – | > 100 | > 100 | – | > 100 | 67.9 | > 100 | – | – | – | – | –
CC(=O)OCC1OC(N2C(=O)[C@@H](Oc3ccccc3)[C@H]2/C=C/c2ccccc2)C(OC(C)=O)C(OC(C)=O)C1OC(C)=O (some centres undefined) | > 100 | > 100 | > 100 | > 100 | > 100 | > 100 | > 100 | > 100 | > 100 | > 100 | – | > 100 | – | – | – | – | –
O=C(O)CN1CCSc2ccccc2CN(CC(=O)O)CCSc2ccccc2C1 | > 100 | > 100 | > 100 | > 100 | > 100 | > 100 | > 100 | > 100 | > 100 | > 100 | – | – | – | – | – | – | –
CC(C)[Si](OC12CCC(CC1O)CC2CO)(C(C)C)C(C)C (centres undefined) | – | 27.1 | 60.6 | 28 | – | 27.5 | 29.9 | 40.8 | 6.73 | > 100 | 31.7 | 44.6 | – | – | – | – | –
